# Literature values in publication PMC2757550 (Bioconjugate chemistry, 2009).
# System: mouse vas deferens preparation
substance,measurement,value
Dmt-Tic-Glu-NH(CH2)5NH-fluorescein,removal from preparation by extensive washing (in words),cannot be removed from the mouse vas deferens preparation by extensive washing
